Test results published in EP4467535A1, “LACTAM PESTICIDAL COMPOUNDS” (priority 2023, dated 2024).

Columns and labels:
Type in all cases: in vivo
[1] = tested on: Tobacco budworm (Heliothis virescens); test: Action on Tobacco budworm (Heliothis virescens), 96-well microtiter plate insect diet test; conditions: 120 h, egg and larval mortality visually assessed after 5 days, read-out: mortality in comparison with untreated controls
Experimental: Example B5: Action on Tobacco budworm (Heliothis virescens)
For evaluating control of tobacco budworm (Heliothis virescens) the test unit consisted of 96-well-microtiter plates containing an insect diet and 15-25 H. virescens eggs.
The compounds were formulated using a solution containing 75% v/v water and 25% v/v DMSO. Different concentrations of formulated compounds were sprayed onto the insect diet at 10 µl, using a custom-built micro atomizer, at two replications.
After application, microtiter plates were incubated at about 28 + 1°C and about 80 + 5 % relative humidity for 5 days. Egg and larval mortality were then visually assessed.

[2] = tested on: Yellow fever mosquito (Aedes aegypti); test: whole plant or invertebrate; conditions: 48 h, larval mortality visually assessed after 2 days at 28 ± 1°C, read-out: mortality in comparison with untreated controls
Experimental: Example B1: Action on Yellow fever mosquito (Aedes aegypti)
For evaluating control of yellow fever mosquito (Aedes aegypti) the test unit consisted of 96-well-microtiter plates containing 200µL of tap water per well and 5-15 freshly hatched A. aegypti larvae.
The active compounds or mixtures were formulated using a solution containing 75% (v/v) water and 25% (v/v) DMSO. Different concentrations of formulated compounds or mixtures were sprayed onto the insect diet at 2.5µL, using a custom-built micro atomizer, at two replications.
For experimental mixtures in these tests identical volumes of both mixing partners at the desired concentrations respectively, were mixed together.
After application, microtiter plates were incubated at 28 ± 1°C, 80 ± 5 % relative humidity for 2 days. Larval mortality was then visually assessed.

[3] = tested on: Boll weevil (Anthonomus grandis); test: Action on Boll weevil (Anthonomus grandis), 96-well microtiter plate insect diet test; conditions: 120 h, egg and larval mortality visually assessed after 5 days, read-out: mortality in comparison with untreated controls
Experimental: Example B3: Action on Boll weevil (Anthonomus grandis )
For evaluating control of boll weevil (Anthonomus grandis) the test unit consisted of 96-well-microtiter plates containing an insect diet and 5-10 A. grandis eggs.
The compounds were formulated using a solution containing 75% (v/v) water and 25% (v/v) DMSO. Different concentrations of formulated compounds were sprayed onto the insect diet at 5 µL, using a custom-built micro atomizer, at two replications.
After application, microtiter plates were incubated at about 25 + 1°C and about 75 + 5 % relative humidity for 5 days. Egg and larval mortality were then visually assessed.

[4] = tested on: Diamond back moth (Plutella xylostella); test: Action on Diamond back moth (Plutella xylostella), cabbage leaf dip test; conditions: foliar, third instar larvae on dipped cabbage leaves, 72 hours after treatment, read-out: mortality in comparison with untreated controls
Experimental: Example B6: Action on Diamond back moth (Plutella xylostella)
The active compound is dissolved at the desired concentration in a mixture of 1:1 (v/v) distilled water: acetone. Surfactant (Kinetic® HV) is added at a rate of 0.01% (v/v). The test solution is prepared at the day of use.
Leaves of cabbage were dipped in test solution and air-dried. Treated leaves were placed in petri dishes lined with moist filter paper and inoculated with ten third instar larvae. Mortality was recorded 72 hours after treatment. Feeding damages were also recorded using a scale of 0-100%.

[5] = tested on: Southern armyworm (Spodoptera eridania), second instar larvae; test: Action on Southern armyworm (Spodoptera eridania), sprayed lima bean plants; conditions: 96 h, 4 days after treatment, read-out: mortality in comparison with untreated controls
Experimental: Example B7: Action on Southern armyworm (Spodoptera eridania), second instar larvae
(§1) The active compounds were formulated by a Tecan liquid handler in 100% cyclohexanone as a 10,000 ppm solution supplied in tubes. The 10,000 ppm solution was serially diluted in 100% cyclohexanone to make interim solutions. These served as stock solutions for which final dilutions were made by the Tecan in 50% acetone:50% water (v/v) into 10 or 20 mL glass vials. A nonionic surfactant (Kinetic®) was included in the solution at a volume of 0.01% (v/v). The vials were then inserted into an automated electrostatic sprayer equipped with an atomizing nozzle for application to plants/insects.
Lima bean plants (variety Sieva) were grown 2 plants to a pot and selected for treatment at the 1st true leaf stage. Test solutions were sprayed onto the foliage by an automated electrostatic plant sprayer equipped with an atomizing spray nozzle. The plants were dried in the sprayer fume hood and then removed from the sprayer. Each pot was placed into perforated plastic bags with a zip closure. About 10 to 11 armyworm larvae were placed into the bag and the bags zipped closed. Test plants were maintained in a growth room at about 25°C and about 20-40% relative humidity for 4 days, avoiding direct exposure to fluorescent light (24 hour photoperiod) to prevent trapping of heat inside the bags. Mortality and reduced feeding were assessed 4 days after treatment, compared to untreated control plants.

[6] = tested on: Silverleaf whitefly (Bemisia argentifolii) (adults); test: Action on Silverleaf whitefly (Bemisia argentifolii) adults, sprayed cotton plants; conditions: 72 h, read-out: mortality in comparison with untreated controls
Experimental: Example B4: Action on Silverleaf whitefly (Bemisia argentifolii) (adults)
as §1, with “into 5” for “into 10”, “or 10ml” for “or 20 mL”
Cotton plants at the cotyledon stage (one plant per pot) were sprayed by an automated electrostatic plant sprayer equipped with an atomizing spray nozzle. The plants were dried in the sprayer fume hood and then removed from the sprayer. Each pot was placed into a plastic cup and about 10 to 12 whitefly adults (approximately 3-5 days old) were introduced. The insects were collected using an aspirator and a nontoxic Tygon® tubing connected to a barrier pipette tip. The tip, containing the collected insects, was then gently inserted into the soil containing the treated plant, allowing insects to crawl out of the tip to reach the foliage for feeding. […] Mortality was assessed 3 days after treatment, compared to untreated control plants.

[7] = tested on: Orchid thrips (Dichromothrips corbetti); test: Action on Orchid thrips (Dichromothrips corbetti), floral-immersion technique; conditions: adult thrips on dipped orchid petals, 72 hours after treatment, read-out: mortality in comparison with untreated controls
Experimental: Example B2: Action on Orchid thrips (Dichromothrips corbetti)
Dichromothrips corbetti adults used for bioassay were obtained from a colony maintained continuously under laboratory conditions. For testing purposes, the test compound is diluted in a 1:1 mixture of acetone:water (vol:vol), plus Kinetic® HV at a rate of 0.01% v/v.
Thrips potency of each compound was evaluated by using a floral-immersion technique. All petals of individual, intact orchid flowers were dipped into treatment solution and allowed to dryin Petri dishes. Treated petals were placed into individual re-sealable plastic along with about 20 adult thrips. All test arenas were held under continuous light and a temperature of about 28°C for duration of the assay. After 3 days, the numbers of live thrips were counted on each petal. The percent mortality was recorded 72 hours after treatment.

Cc1ccc(C(C)C)c(N2C(=O)CS/C2=N\N=C\c2ccc(-c3nn(C)c(N4Cc5cc(OC(F)(F)F)ccc5C4=O)c3C)cc2)c1 [C-2, (2Z)-2-[(E)-[4-[1,4-dimethyl-5-[1-oxo-5-(trifluoromethoxy)isoindolin-2-yl]pyrazol-3-yl]phenyl]methylenehydrazono]-3-(2-isopropyl-5-methyl-phenyl)thiazolidin-4-one]
≥ 50%: mortality at 800 ppm [2]
≥ 75%: mortality at 800 ppm [1] | mortality at 800 ppm [3] | mortality at 300 ppm [4] | mortality at 300 ppm [5] | mortality at 300 ppm [6] | mortality at 300 ppm [7]
